Assay results as given in ChEMBL document CHEMBL6109094, “Anti-inflammatory agents design via the fragment hybrid strategy in the discovery of compound c1 for treating ALI and UC” (Eur J Med Chem, 2025).
Active and inactive are the calls of the source. The rule behind the calls is not given here.

What follows are molecules tested on RAW264.7 (assay: Anti-inflammatory activity in mouse RAW264.7 cells assessed as inhibition of LPS-induced IL-6 level at 10 uM preincubated for 30 mins followed by LPS addition measured after 24 hrs by ELISA relative to control). Conditions: time 24.5 hrs.
Format: functional

With `COc1cc2ncnc(O[C@H]3CC[C@@H](NC(=O)CN4CCNCC4)CC3)c2cc1O` as the molecule, how does the inhibition at 10 µM read?
Its inhibition at 10 µM is 37.1%.

For `COc1cc2c(O[C@H]3CC[C@@H](N)CC3)ncnc2cc1OCc1ccc([N+](=O)[O-])cc1`, which inhibition at 10 µM is on record?
The inhibition at 10 µM was 86.6%.

`COc1cc2c(O[C@H]3CC[C@@H](NCCN4CCN(C(=O)OC(C)(C)C)CC4)CC3)ncnc2cc1OCc1ccccc1` was tested. Which inhibition did it give?
Its inhibition is “inactive”.

With `COc1cc2c(O[C@H]3CC[C@@H](N)CC3)ncnc2cc1OCc1ccc(C)cc1` as the molecule, how does the inhibition at 10 µM read?
The inhibition at 10 µM was 87.2%.

With `COc1cc2c(O[C@H]3CC[C@@H](N)CC3)ncnc2cc1OCc1ccccc1[N+](=O)[O-]` as the molecule, how does the inhibition at 10 µM read?
Its inhibition at 10 µM is 30.6%.

Which inhibition at 10 µM does the source give for `COc1cc2c(O[C@H]3CC[C@@H](N)CC3)ncnc2cc1OCc1ccccc1Br` here?
The inhibition at 10 µM was 33.2%.

How did the inhibition at 10 µM turn out when `COc1cc2ncnc(O[C@H]3CC[C@@H](NCCN4CCNCC4)CC3)c2cc1O` was run?
The inhibition at 10 µM was 46.5%.

How did the inhibition at 10 µM turn out when `COc1cc2ncnc(O[C@H]3CC[C@@H](NC(=O)CN4CCN(C(=O)OC(C)(C)C)CC4)CC3)c2cc1O` was run?
The inhibition at 10 µM was 11.8%.

For `COc1cc2ncnc(O[C@H]3CC[C@@H](NCCN4CCNCC4)CC3)c2cc1OCc1ccccc1`, which inhibition at 10 µM is on record?
Its inhibition at 10 µM is 62.7%.

How did the inhibition at 10 µM turn out when `COc1cc2c(O[C@H]3CC[C@@H](NCCN4CCNCC4)CC3)ncnc2cc1OCc1ccccc1` was run?
Its inhibition at 10 µM is 74.2%.

How did the inhibition at 10 µM turn out when `COc1cc2ncnc(O[C@H]3CC[C@@H](NC(=O)CCN4CCNCC4)CC3)c2cc1O` was run?
The inhibition at 10 µM was 9.85%.

Which inhibition at 10 µM does the source give for `COc1cc2ncnc(O[C@H]3CC[C@@H](NCCN4CCN(C(=O)OC(C)(C)C)CC4)CC3)c2cc1O` here?
The inhibition at 10 µM was 59.4%.

With `COc1cc2c(O[C@H]3CC[C@@H](NCCN4CCNCC4)CC3)ncnc2cc1O` as the molecule, how does the inhibition at 10 µM read?
Its inhibition at 10 µM is 58.4%.

How did the inhibition at 10 µM turn out when `COc1cc2ncnc(O[C@H]3CC[C@@H](NCC4CCCN(C(=O)OC(C)(C)C)C4)CC3)c2cc1O` (some centres not stated) was run?
Its inhibition at 10 µM is 68.7%.

For `COc1cc2ncnc(O[C@H]3CC[C@@H](NCCN4CCN(C(C)=O)CC4)CC3)c2cc1O`, which inhibition at 10 µM is on record?
The inhibition at 10 µM was 66.1%.

How did the inhibition at 10 µM turn out when `COc1cc2ncnc(O[C@H]3CC[C@@H](NCCCN4CCN(C)CC4)CC3)c2cc1O` was run?
Its inhibition at 10 µM is 4.51%.

How did the inhibition at 10 µM turn out when `Clc1ccc2c(O[C@H]3CC[C@@H](NCCN4CCNCC4)CC3)ncnc2c1` was run?
The inhibition at 10 µM was 58.9%.

For `COc1cc2c(O[C@H]3CC[C@@H](N)CC3)ncnc2cc1OCc1cccc([N+](=O)[O-])c1`, which inhibition at 10 µM is on record?
The inhibition at 10 µM was 75.2%.

Which inhibition at 10 µM does the source give for `COc1cc2c(O[C@H]3CC[C@@H](N)CC3)ncnc2cc1OCc1cccc(C)c1` here?
Its inhibition at 10 µM is 89.5%.

Which inhibition does the source give for `COc1cc2ncnc(O[C@H]3CC[C@@H](NCC4CCCNC4)CC3)c2cc1O` (some centres not stated) here?
Its inhibition is “inactive”.

Which inhibition does the source give for `COc1cc2c(O[C@H]3CC[C@@H](N)CC3)ncnc2cc1OCc1ccc(Br)cc1` here?
Its inhibition is “inactive”.

With `CC(C)(C)OC(=O)N1CCN(CCN[C@H]2CC[C@@H](Oc3ncnc4cc(Cl)ccc34)CC2)CC1` as the molecule, how does the inhibition at 10 µM read?
The inhibition at 10 µM was 68.7%.

For `COc1cc2ncnc(O[C@H]3CC[C@@H](NC(=O)CCN4CCN(C(=O)OC(C)(C)C)CC4)CC3)c2cc1O`, which inhibition at 10 µM is on record?
Its inhibition at 10 µM is 17.5%.

`COc1cc2c(O[C@H]3CC[C@@H](NCCN4CCN(C(=O)OC(C)(C)C)CC4)CC3)ncnc2cc1O` was tested. Which inhibition at 10 µM did it give?
Its inhibition at 10 µM is 53.6%.

Which inhibition at 10 µM does the source give for `COc1cc2ncnc(O[C@H]3CC[C@@H](NCCN4CCN(C(=O)OC(C)(C)C)CC4)CC3)c2cc1OCc1ccccc1` here?
The inhibition at 10 µM was 58.1%.

For `COc1cc2ncnc(O[C@H]3CC[C@@H](NCCN4CCNCC4)CC3)c2cc1OC`, which inhibition is on record?
The inhibition was “inactive”.

`COc1cc2ncnc(O[C@H]3CC[C@@H](NCCN4CCN(C(=O)OC(C)(C)C)CC4)CC3)c2cc1OC` was tested. Which inhibition at 10 µM did it give?
Its inhibition at 10 µM is 10.8%.

Each molecule was assayed against T1, Tyrosine-protein kinase JAK3 (Homo sapiens, UniProt P52333) (assay: Inhibition of JAK3 (unknown origin)). Conditions: not given.
T1 sequence (P52333 whole entry): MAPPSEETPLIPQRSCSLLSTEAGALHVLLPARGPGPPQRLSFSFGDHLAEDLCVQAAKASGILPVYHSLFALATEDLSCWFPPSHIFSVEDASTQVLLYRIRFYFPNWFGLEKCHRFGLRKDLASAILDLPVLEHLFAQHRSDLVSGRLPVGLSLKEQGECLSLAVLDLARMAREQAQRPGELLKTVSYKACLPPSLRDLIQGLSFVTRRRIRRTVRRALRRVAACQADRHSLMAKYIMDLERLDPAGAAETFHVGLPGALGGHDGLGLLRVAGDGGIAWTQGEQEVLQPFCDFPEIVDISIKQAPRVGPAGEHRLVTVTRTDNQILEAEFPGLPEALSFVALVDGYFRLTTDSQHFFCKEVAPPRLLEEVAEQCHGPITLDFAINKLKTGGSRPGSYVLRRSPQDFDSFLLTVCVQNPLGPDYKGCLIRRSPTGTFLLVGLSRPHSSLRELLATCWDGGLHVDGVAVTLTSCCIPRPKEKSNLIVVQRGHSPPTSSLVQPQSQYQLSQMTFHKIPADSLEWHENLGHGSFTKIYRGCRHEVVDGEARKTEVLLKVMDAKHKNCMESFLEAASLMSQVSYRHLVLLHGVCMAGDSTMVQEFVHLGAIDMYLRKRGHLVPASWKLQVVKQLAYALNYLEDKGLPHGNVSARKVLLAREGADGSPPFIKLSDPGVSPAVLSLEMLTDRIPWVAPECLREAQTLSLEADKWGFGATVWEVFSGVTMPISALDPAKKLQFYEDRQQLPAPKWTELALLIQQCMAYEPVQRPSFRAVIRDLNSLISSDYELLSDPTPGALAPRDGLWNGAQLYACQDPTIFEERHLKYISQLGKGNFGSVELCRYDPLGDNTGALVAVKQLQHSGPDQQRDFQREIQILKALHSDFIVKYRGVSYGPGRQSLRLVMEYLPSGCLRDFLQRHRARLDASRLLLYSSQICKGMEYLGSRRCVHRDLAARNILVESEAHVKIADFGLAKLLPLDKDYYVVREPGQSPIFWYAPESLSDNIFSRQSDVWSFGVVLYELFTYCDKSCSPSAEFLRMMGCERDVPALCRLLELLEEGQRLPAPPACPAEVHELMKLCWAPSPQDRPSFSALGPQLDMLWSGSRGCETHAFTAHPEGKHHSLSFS

For `COc1cc2ncnc(Nc3cc(Br)c(O)c(Br)c3)c2cc1OC`, which IC50 is on record?
Its IC50 is 2500 nM.

What follows are molecules tested on RAW264.7 (assay: cells). Conditions: Mus musculus.
Description: Anti-inflammatory activity in mouse RAW264.7 cells assessed as inhibition of LPS-induced IL-6 level preincubated for 30 mins followed by LPS addition measured after 24 hrs by ELISA

Which IC50 does the source give for `COc1cc2c(O[C@H]3CC[C@@H](N)CC3)ncnc2cc1OCc1ccc([N+](=O)[O-])cc1` here?
The IC50 was 650 nM.

With `COc1cc2c(O[C@H]3CC[C@@H](N)CC3)ncnc2cc1OCc1ccc(C)cc1` as the molecule, how does the IC50 read?
The IC50 was 1590 nM.

For `COc1cc2c(O[C@H]3CC[C@@H](NCCN4CCNCC4)CC3)ncnc2cc1OCc1ccccc1`, which IC50 is on record?
Its IC50 is 3550 nM.

For `COc1cc2c(O[C@H]3CC[C@@H](N)CC3)ncnc2cc1OCc1cccc(C)c1`, which IC50 is on record?
The IC50 was 600 nM.
